Measurements: patent US9751881B2, “Inhibitors of the renal outer medullary potassium channel” (Merck Sharp & Dohme Corp., priority 2013, dated 2017)
Where a name gives a salt, the structure may show the parent alone.

Molecular target: hROMK (hKir1.1) (Homo sapiens (Human), UniProt P48048)
Assay: Thallium Flux Assay (ROMK channel functional thallium flux, FLIPR-Tetra)
Type: cell-based
Details: HEK293 cells stably expressing hROMK (hKir1.1); unit not given in Table 4 (IC50 potencies less than 1 μM); read-out: ROMK TI IC50
Description: Cell Culture Conditions—HEK293 cells stably expressing hROMK (hKir1.1) were grown at 37° C. in a 10% CO2 humidified incubator in complete growth media: Dulbecco's Modified Eagle Medium supplemented with non-essential amino acids, Penicillin/Streptomycin/Glutamine, G418 and FBS. At >80% confluency, the media was aspirated from the flask and rinsed with 10 mL calcium/magnesium-free PBS. […] To dislodge the cell, the side of the flask was gently banged with one's hand. The cells completely titrated and then the cells were transferred to 25 mL complete media, centrifuged at 1,500 rpm for 6 min followed by resuspension in complete growth media and determine cell concentration. […] Under ideal growth conditions and appropriate tissue culture practices, this cell line is stable for 40-45 passages.
FluxOR Kit Components (Invitrogen F10017)
• FluxOR™ Reagent (Component A) • FluxOR™ Assay Buffer (Component B)—10× Concentrate • PowerLoad™ Concentrate (Component C)—100× Concentrate • Probenecid (Component D)—Lyophilized sample is kept at −20° C. Water soluble, 100× after solubilization in 1 mL water. […] Store at 4° C. • Thallium sulfate (Tl2SO4) Concentrate (Component G)—50 mM in water. […] Can be stored at room temperature • Stimulant Buffer (prepared at 5× final concentration in 1× FluxOR™Chloride-Free Buffer): 7.5 mM thallium sulfate and 0.75 mM potassium sulfate (to give a final assay concentration of 3 mM Thallium/0.3 mM potassium). Store at 4° C. when not in use. If kept sterile, this solution is good for months.
• 1. Seed HEK-hKir1.1 cells (50 μl at 20,000 cells/well) in 384-well PDL coated Microplates • 2. Allow cells to adhere overnight in humidified 37° C./10% CO2 incubator • 3. Completely remove cell growth media from microplate and replace with 25 μl loading buffer • 4. Incubate Microplate at room temperature, protected form light, for 90 min • 5. Remove loading buffer and replace with 25 μl 1× Assay Buffer±test compound. • 6. Incubate microplate at room temperature, protected from light, for 30 min • 7. […] Excitation=400 nm, Emission=460 & 580 nm. Collect data for ˜10 min.
Data Calculation—The fluorescence intensity of wells containing 3 μM of a standard control ROMK inhibitor of the present invention was used to define the ROMK-sensitive component of thallium flux. Fluorescence in the presence of test compounds was normalized to control values to provide % fluorescence change.

Chain of hROMK (hKir1.1) (P48048 whole entry): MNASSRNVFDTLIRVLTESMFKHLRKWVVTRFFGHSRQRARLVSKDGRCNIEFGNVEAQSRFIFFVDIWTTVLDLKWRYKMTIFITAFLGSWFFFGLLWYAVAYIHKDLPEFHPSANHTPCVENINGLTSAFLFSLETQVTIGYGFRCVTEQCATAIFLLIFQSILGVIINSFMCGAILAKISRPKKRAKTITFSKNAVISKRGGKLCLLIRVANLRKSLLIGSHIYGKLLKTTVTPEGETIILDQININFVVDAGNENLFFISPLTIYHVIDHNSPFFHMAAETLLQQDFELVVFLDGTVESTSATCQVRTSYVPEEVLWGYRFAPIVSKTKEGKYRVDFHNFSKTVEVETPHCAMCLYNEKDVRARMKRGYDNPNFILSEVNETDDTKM

Row | Structure (SMILES) | IC50
1 | Cc1c([C@@H](O)CN2CCC3(CC2)CN(c2ccc(S(C)(=O)=O)nn2)C3)ccc2c1COC2=O [Example 48, (R)-5-(1-Hydroxy-2-(2-(6-(methylsulfonyl)pyridazin-3-yl)-2,7-diazaspiro[3.5]nonan-7-yl)ethyl)-4-methylisobenzofuran-1(3H)-one] | 71 nM
2 | Cc1c([C@@H](O)CN2CCC3(CC2)CN(c2ccc(S(C)(=O)=O)cn2)C3)ccc2c1COC2=O [Example 47, (R)-5-(1-Hydroxy-2-(2-(5-(methylsulfonyl)pyridin-2-yl)-2,7-diazaspiro[3.5]nonan-7-yl)ethyl)-4-methylisobenzofuran-1(3H)-one] | 220 nM
3 | Cc1c([C@@H](O)CN2CCC3(CC2)CC(=O)N(c2ccc(S(C)(=O)=O)cn2)C3)ccc2c1COC2=O [Example 34, (R)-8-(2-Hydroxy-2-(4-methyl-1-oxo-1,3-dihydroisobenzofuran-5-yl)ethyl)-2-(5-(methylsulfonyl)pyridin-2-yl)-2,8-diazaspiro[4.5]decan-3-one] | 53.4 nM
4 | Cc1c([C@@H](O)CN2CCC3(CCCN(c4ncc(-n5cnnn5)cn4)C3)CC2)ccc2c1COC2=O [Example 43, (R)-5-(2-(2-(5-(1H-tetrazol-1-yl)pyrimidin-2-yl)-2,9-diazaspiro[5.5]undecan-9-yl)-1-hydroxyethyl)-4-methylisobenzofuran-1(3H)-one] | 37 nM
5 | Cc1c([C@@H](O)CN2CCC3(CCN(c4ccc(C#N)cn4)CC3)C2)ccc2c1COC2=O [Example 53, (R)-6-(2-(2-Hydroxy-2-(4-methyl-1-oxo-1,3-dihydroisobenzofuran-5-yl)ethyl)-2,8-diazaspiro[4.5]decan-8-yl)nicotinonitrile] | 19 nM
6 | Cc1c([C@@H](O)CN2CCC3(CC2)CC(=O)N(c2ccc(-n4cnnn4)nc2)C3)ccc2c1COC2=O [Example 72, 8-[(2R)-2-Hydroxy-2-(4-methyl-1-oxo-1,3-dihydro-2-benzofuran-5-yl)ethyl]-2-[6-(1H-tetrazol-1-yl)pyridin-3-yl]-2,8-diazaspiro[4.5]decan-3-one hydrochloride] | 100 nM
7 | Cc1c([C@@H](O)CN2CCC3(CCN(c4cnc(S(C)(=O)=O)cn4)CC3)C2)ccc2c1COC2=O [Example 65, 5-[(1R)-1-Hydroxy-2-{8-[5-(methylsulfonyl)pyrazin-2-yl]-2,8-diazaspiro[4.5]dec-2-yl}ethyl]-4-methyl-2-benzofuran-1(3H)-one hydrochloride] | 99.8 nM
8 | Cc1c([C@@H](O)CN2CCC3(CC2)CCN(c2ccc(S(C)(=O)=O)cn2)C3)ccc2c1COC2=O [Example 22, (R)-5-(1-Hydroxy-2-(2-(5-(methylsulfonyl)pyridin-2-yl)-2,8-diazaspiro[4.5]decan-8-yl)ethyl)-4-methylisobenzofuran-1(3H)-one] | 41.1 nM
9 | Cc1c([C@@H](O)CN2CCC3(CC2)CCN(c2ncc(S(C)(=O)=O)cn2)C3)ccc2c1COC2=O [Example 41, (R)-5-(1-Hydroxy-2-(2-(5-(methylsulfonyl)pyrimidin-2-yl)-2,8-diazaspiro[4.5]decan-8-yl)ethyl)-4-methylisobenzofuran-1(3H)-one] | 101 nM
10 | Cc1c([C@@H](O)CN2CCC3(CC2)CCN(c2ccnc(C#N)c2)C3)ccc2c1COC2=O [Example 60, (R)-4-(8-(2-Hydroxy-2-(4-methyl-1-oxo-1,3-dihydroisobenzofuran-5-yl)ethyl)-2,8-diazaspiro[4.5]decan-2-yl)picolinonitrile] | 54.4 nM
11 | COc1cc(N2CC3(CCN(C[C@H](O)c4ccc5c(c4C)COC5=O)CC3)CC2=O)ncc1C#N [Example 59, (R)-6-(8-(2-Hydroxy-2-(4-methyl-1-oxo-1,3-dihydroisobenzofuran-5-yl)ethyl)-3-oxo-2,8-diazaspiro[4.5]decan-2-yl)-4-methoxynicotinonitrile] | 32.9 nM
12 | COc1cc(C(O)CN2CCC3(CC2)CCN(c2ccc(S(C)(=O)=O)cn2)C3)c(Cl)cc1C#N (stereo not drawn) [Example 40, 5-Chloro-4-(1-hydroxy-2-(2-(5-(methylsulfonyl)pyridin-2-yl)-2,8-diazaspiro[4.5]decan-8-yl)ethyl)-2-methoxybenzonitrile] | 168 nM
13 | COc1cc(N2CCC3(CCN(C[C@H](O)c4ccc5c(c4C)COC5=O)CC3)C2)ncc1C#N [Example 7, (R)-6-(8-(2-Hydroxy-2-(4-methyl-1-oxo-1,3-dihydroisobenzofuran-5-yl)ethyl)-2,8-diazaspiro[4.5]decan-2-yl)-4-methoxynicotinonitrile] | 21.5 nM
14 | Cc1c([C@@H](O)CN2CCC3(CC2)CCN(c2ccc(S(C)(=O)=O)nc2)C3=O)ccc2c1COC2=O [Example 55, (R)-8-(2-Hydroxy-2-(4-methyl-1-oxo-1,3-dihydroisobenzofuran-5-yl)ethyl)-2-(6-(methylsulfonyl)pyridin-3-yl)-2,8-diazaspiro[4.5]decan-1-one] | 85.1 nM
15 | Cc1c([C@@H](O)CN2CCC3(CC2)CCN(c2ccc(C#N)cn2)C3=O)ccc2c1COC2=O [Example 5, 6-{8-[(2R)-2-hydroxy-2-(4-methyl-1-oxo-1,3-dihydro-2-benzofuran-5-yl)ethyl]-1-oxo-2,8-diazaspiro[4.5]dec-2-yl}pyridine-3-carbonitrile] | 37 nM
16 | CCS(=O)(=O)c1cnc(N2CC3(CCN(C[C@H](O)c4ccc5c(c4C)COC5=O)CC3)CC2=O)cn1 [Example 68, 2-[5-(Ethylsulfonyl)pyrazin-2-yl]-8-[(2R)-2-hydroxy-2-(4-methyl-1-oxo-1,3-dihydro-2-benzofuran-5-yl)ethyl]-2,8-diazaspiro[4.5]decan-3-one hydrochloride] | 127 nM
17 | Cc1c([C@@H](O)CN2CCC3(CC2)CCN(c2nnc(S(C)(=O)=O)s2)C3)ccc2c1COC2=O [Example 62, 5-[(1R)-1-hydroxy-2-{2-[5-(methylsulfonyl)-1,3,4-thiadiazol-2-yl]-2,8-diazaspiro[4.5]dec-8-yl}ethyl]-4-methyl-2-benzofuran-1(3H)-one hydrochloride] | 210 nM
18 | Cc1c([C@@H](O)CN2CCC3(CC2)CCN(c2ccc(C#N)nn2)C3)ccc2c1COC2=O [Example 18, (R)-6-(8-(2-Hydroxy-2-(4-methyl-1-oxo-1,3-dihydroisobenzofuran-5-yl)ethyl)-2,8-diazaspiro[4.5]decan-2-yl)pyridazine-3-carbonitrile] | 156 nM

More lines, now with the values ahead:

Row | IC50 | Structure (SMILES)
19 | 125 nM | Cc1c([C@@H](O)CN2CCC3(CC2)CN(c2cnc(S(C)(=O)=O)cn2)C(=O)O3)ccc2c1COC2=O [Example 92, (R)-8-(2-Hydroxy-2-(4-methyl-1-oxo-1,3-dihydroisobenzofuran-5-yl)ethyl)-3-(5-(methylsulfonyl)pyrazin-2-yl)-1-oxa-3,8-diazaspiro[4.5]decan-2-one]
20 | 4.7 nM | Cc1c([C@@H](O)CN2CCC3(CC2)CCN(c2cnc(C#N)cn2)C3)ccc2c1COC2=O [Example 83]
21 | 255 nM | Cc1cc(C#N)cnc1N1CCC2(CCN(CC(O)c3ccc4c(c3C)COC4=O)CC2)CC1 (stereo not drawn) [Example 108]
22 | 50.4 nM | COc1cc(C#N)ccc1N1CCC2(CCN(C[C@H](O)c3ccc4c(c3C)COC4=O)CC2)C1 [Example 86]
23 | 39.6 nM | Cc1c([C@@H](O)CN2CCC3(CC2)CN(c2ccc(C#N)cn2)CCO3)ccc2c1COC2=O [Example 101, (R)-6-(9-(2-Hydroxy-2-(4-methyl-1-oxo-1,3-dihydroisobenzofuran-5-yl)ethyl)-1-oxa-4,9-diazaspiro[5.5]undecan-4-yl)nicotinonitrile]
24 | 148 nM | CCS(=O)(=O)c1cnc(N2CC3(CCN(C[C@H](O)c4ccc5c(c4C)COC5=O)CC3)OC2=O)cn1 [Example 93, (R)-3-(5-(Ethylsulfonyl)pyrazin-2-yl)-8-(2-hydroxy-2-(4-methyl-1-oxo-1,3-dihydroisobenzofuran-5-yl)ethyl)-1-oxa-3,8-diazaspiro[4.5]decan-2-one]
25 | 26.3 nM | Cc1c(C(O)CN2CCC3(CC2)CCN(c2cc(C#N)ncn2)CC3)ccc2c1COC2=O (stereo not drawn) [Example 106]
26 | 208 nM | Cc1c([C@@H](O)CN2CCC3(CC2)CN(c2ccc(S(C)(=O)=O)cn2)C(=O)O3)ccc2c1COC2=O [Example 91, (R)-8-(2-hydroxy-2-(4-methyl-1-oxo-1,3-dihydroisobenzofuran-5-yl)ethyl)-3-(5-(methylsulfonyl)pyridin-2-yl)-1-oxa-3,8-diazaspiro[4.5]decan-2-one]
27 | 168 nM | Cc1c([C@@H](O)CN2CCC3(CC2)CN(c2ccc(S(C)(=O)=O)nc2)CCO3)ccc2c1COC2=O [Example 99, (R)-5-(1-Hydroxy-2-(4-(6-(methylsulfonyl)pyridin-3-yl)-1-oxa-4,9-diazaspiro[5.5]undecan-9-yl)ethyl)-4-methylisobenzofuran-1(3H)-one]
